# Measured values taken from patent US20190016689A1, “NOVEL FLUORINATED QUINAZOLINE DERIVATIVES AS EGFR INHIBITORS” (TRILLIUM THERAPEUTICS INC., priority 2016, published 2019).
# Biological target: EGFR (T790M) (Homo sapiens, UniProt P00533, T790M, form not given)
# Experiment: Kinase HotSpot profiling (33P-ATP filter binding)
# Format: biochemical
# Conditions: not given
# Method: Base Reaction buffer; 20 mM Hepes (pH 7.5), 10 mM MgCl2, 1 mM EGTA, 0.02% Brij35, 0.02 mg/ml BSA, 0.1 mM Na3VO4, 2 mM DTT, 1% DMSO • Required cofactors are added individually to each kinase reaction
# 1. The indicated substrate was prepared in fresh Base Reaction Buffer.
# 2. Any required cofactors were added to the substrate solution above.
# 3. Indicated kinase was added into the substrate solution and gently mixed.
# 4. Compounds in DMSO were added into the kinase reaction mixture by Acoustic technology (Echo550; nanoliter range) and incubated for 20 minutes at room temperature.
# 5. 33P-ATP (specific activity 10 μCi/μl) was added into the reaction mixture to initiate the reaction.
# 6. The kinase reaction was incubated for 2 hours at room temperature
# 7. Reactions were spotted onto P81 ion exchange paper.
# 8. Kinase activity was detected by filter-binding method.
# IC50 (nM) concentrations are illustrated in Table 5. This assay confirms that compounds of the application are effective inhibitors of the target EGFR receptors.
# EGFR (T790M), sequence (P00533 whole entry T790M, form open): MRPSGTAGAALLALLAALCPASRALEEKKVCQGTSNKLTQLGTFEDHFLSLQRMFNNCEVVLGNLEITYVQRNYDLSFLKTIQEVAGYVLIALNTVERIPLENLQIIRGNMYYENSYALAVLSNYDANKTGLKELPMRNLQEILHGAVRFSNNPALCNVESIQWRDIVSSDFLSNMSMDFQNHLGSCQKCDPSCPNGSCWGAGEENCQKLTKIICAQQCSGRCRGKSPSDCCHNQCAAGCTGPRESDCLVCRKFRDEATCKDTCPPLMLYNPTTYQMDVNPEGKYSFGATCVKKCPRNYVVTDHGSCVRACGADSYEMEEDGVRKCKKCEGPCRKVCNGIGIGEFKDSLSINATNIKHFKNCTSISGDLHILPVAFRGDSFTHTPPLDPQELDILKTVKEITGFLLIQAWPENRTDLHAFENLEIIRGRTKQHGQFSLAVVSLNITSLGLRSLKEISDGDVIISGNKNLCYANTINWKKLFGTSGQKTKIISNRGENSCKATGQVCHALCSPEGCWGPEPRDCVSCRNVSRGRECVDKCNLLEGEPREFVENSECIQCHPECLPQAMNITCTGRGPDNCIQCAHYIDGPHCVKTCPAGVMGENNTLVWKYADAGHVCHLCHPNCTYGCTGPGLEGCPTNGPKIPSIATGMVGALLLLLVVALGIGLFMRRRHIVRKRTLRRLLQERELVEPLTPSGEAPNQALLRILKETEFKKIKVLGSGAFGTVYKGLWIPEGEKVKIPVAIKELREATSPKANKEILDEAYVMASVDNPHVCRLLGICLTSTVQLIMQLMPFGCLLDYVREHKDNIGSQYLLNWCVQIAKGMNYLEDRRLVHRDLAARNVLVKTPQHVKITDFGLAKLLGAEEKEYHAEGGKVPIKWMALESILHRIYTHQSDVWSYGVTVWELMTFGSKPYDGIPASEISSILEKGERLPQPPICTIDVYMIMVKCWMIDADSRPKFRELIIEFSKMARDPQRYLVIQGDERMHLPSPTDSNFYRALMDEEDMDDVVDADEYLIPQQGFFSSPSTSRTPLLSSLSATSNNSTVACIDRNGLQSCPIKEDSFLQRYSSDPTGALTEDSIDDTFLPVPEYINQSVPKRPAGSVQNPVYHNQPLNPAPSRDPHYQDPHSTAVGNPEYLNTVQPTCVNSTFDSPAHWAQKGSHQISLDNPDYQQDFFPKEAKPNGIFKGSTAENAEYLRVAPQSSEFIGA
row,IC50 [nM],SMILES
1,0.679,"C#Cc1cccc(Nc2ncnc3cc(OCCOC(F)F)c(NC(=O)/C=C/CN(C)C)cc23)c1F [Example I-25, (E)-N-[7-[2-(difluoromethoxy)ethoxy]-4-(3-ethynyl-2-fluoro-anilino)quinazolin-6-yl]-4-(dimethylamino)but-2-enamide]"
2,16.4,"CN(C)C/C=C/C(=O)Nc1cc2c(Nc3ccc(Cl)c(Cl)c3F)ncnc2cc1OCCOC(F)F [Example I-2, (E)-N-[4-(3,4-dichloro-2-fluoro-anilino)-7-[2-(difluoromethoxy)ethoxy]quinazolin-6-yl]-4-(dimethylamino)but-2-enamide]"
3,79.5,"O=C(/C=C/CN1CCC(OC(F)F)CC1)Nc1cc2c(Nc3cccc(Cl)c3F)ncnc2cc1OCCOC(F)F [Example I-8, (E)-N-[4-(3-chloro-2-fluoro-anilino)-7-[2-(difluoromethoxy)-ethoxy]quinazolin-6-yl]-4-[4-(difluoromethoxy)-1-piperidyl]but-2-enamide]"
4,62.8,"COc1cc2ncnc(Nc3ccc(F)c(Cl)c3)c2cc1NC(=O)/C=C/CN1CCC(OC(F)F)CC1 [Example I-18, (E)-N-[4-(3-chloro-4-fluoro-anilino)-7-methoxy-quinazolin-6-yl]-4-[4-(difluoromethoxy)-1-piperidyl]but-2-enamide]"
5,5.56,"O=C(/C=C/CN1CCOCC1)Nc1cc2c(Nc3ccc(Cl)c(Cl)c3F)ncnc2cc1OCCOC(F)F [Example I-3, (E)-N-[4-(3,4-dichloro-2-fluoro-anilino)-7-[2-(difluoromethoxy)ethoxy]quinazolin-6-yl]-4-morpholino-but-2-enamide]"
6,817,"COc1cc2ncnc(Nc3ccc(Cl)c(Cl)c3F)c2cc1NC(=O)/C=C/CN1CCC(OC(F)F)CC1 [Example I-17, (E)-N-[4-(3,4-dichloro-2-fluoro-anilino)-7-methoxy-quinazolin-6-yl]-4-[4-(difluoromethoxy)-1-piperidyl]but-2-enamide]"
7,10.5,"O=C(/C=C/CN1CCOCC1)Nc1cc2c(Nc3cccc(Cl)c3F)ncnc2cc1OCCOC(F)F [Example I-7, (E)-N-[4-(3-chloro-2-fluoro-anilino)-7-[2-(difluoromethoxy)-ethoxy]quinazolin-6-yl]-4-morpholino-but-2-enamide]"
8,0.707,"CN(C)C/C=C/C(=O)Nc1cc2c(Nc3cccc(Cl)c3F)ncnc2cc1OCCOC(F)F [Example I-5, (E)-N-[4-(3-chloro-2-fluoro-anilino)-7-[2-(difluoromethoxy)ethoxy]quinazolin-6-yl]-4-(dimethylamino)but-2-enamide]"
9,13.1,"O=C(/C=C/CN1CCC(OC(F)F)CC1)Nc1cc2c(Nc3ccc(F)c(Cl)c3)ncnc2cc1OCCOC(F)F [Example I-22, (E)-N-[4-(3-chloro-4-fluoro-anilino)-7-[2-(difluoromethoxy)ethoxy]quinazolin-6-yl]-4-[4-(difluoromethoxy)-1-piperidyl]but-2-enamide]"
10,13.7,"O=C(/C=C/CN1CC(F)(F)C1)Nc1cc2c(Nc3ccc(F)c(Cl)c3F)ncnc2cc1OCCOC(F)F [Example I-16, (E)-N-[4-(3-chloro-2,4-difluoro-anilino)-7-[2-(difluoromethoxy)ethoxy]quinazolin-6-yl]-4-(3,3-difluoroazetidin-1-yl)but-2-enamide]"

row,SMILES,IC50 [nM]
1,"CN(C)C/C=C/C(=O)Nc1cc2c(Nc3ccc(F)c(Cl)c3F)ncnc2cc1OCCOC(F)F [Example I-9, (E)-N-[4-(3-chloro-2,4-difluoro-anilino)-7-[2-(difluoromethoxy)-ethoxy]quinazolin-6-yl]-4-(dimethylamino)but-2-enamide]",0.0597
2,"O=C(/C=C/CN1CCCCC1)Nc1cc2c(Nc3ccc(F)c(Cl)c3F)ncnc2cc1OCCOC(F)F [Example I-10, (E)-N-[4-(3-chloro-2,4-difluoro-anilino)-7-[2-(difluoromethoxy)ethoxy]quinazolin-6-yl]-4-(1-piperidyl)but-2-enamide]",0.156

# Tested on: not listed separately
# Experiment: Evaluation of P-gp efflux: Caco-2 permeability
# Conditions: human, Caco-2, pH 7.4
# Method: (§1) At this stage of growth, cell monolayers were fully polarized and differentiated.
# (§2) The permeability assay buffer was Hanks Balanced Salt Solution containing 10 mM HEPES and 15 mM glucose at a pH of 7.4. The dosing buffer contained 5 μM metoprolol (positive control), 5 μM atenolol (negative control) and 100 μM lucifer yellow. The buffer in the receiver chamber also contained 1% bovine serum albumin (BSA). The dosing solution concentration was 5 μM in the assay buffer. Digoxin (20 μM) was used as Pgp substrate control.
# (§3) The known Pgp inhibitor was co-dosed at 50 μM with compound at 5 μM.
# (§4) Cell monolayers were dosed on the apical side (A-to-B) or basolateral side (B-to-A) and incubated at 37° C. in a shaker (65 rpm). Samples were taken from the donor and receiver chambers at 120 minutes. Each determination was performed in duplicate.
# (§5) Narrow-window mass extraction LC/MS analysis was performed for all samples from this study using a Waters Xevo quadrupole time-of-flight (QTof) mass spectrometer, to determine relative peak areas of parent compound. The percent of transported drug was calculated based on these peak areas, relative to the initial, dosing concentration.
"Papp A→B at 120 min, 5 µM [×10⁻⁶ cm/s]","Papp B→A at 120 min, 5 µM [×10⁻⁶ cm/s]",SMILES
0.75,22.7,C[C@H]1O[C@@H](O[C@H]2[C@@H](O)C[C@H](O[C@H]3[C@@H](O)C[C@H](O[C@H]4CC[C@@]5(C)[C@H](CC[C@@H]6[C@@H]5C[C@@H](O)[C@]5(C)[C@@H](C7=CC(=O)OC7)CC[C@]65O)C4)O[C@@H]3C)O[C@@H]2C)C[C@H](O)[C@@H]1O [Digoxin]
21.7,34.7,COc1cc2nc(N3CCN(C(=O)c4ccco4)CC3)nc(N)c2cc1OC [Prazosin]
21.1,15.8,CC(C)NCC(O)COc1cccc2ccccc12 (stereo not drawn) [Propranolol]

# Tested on: P-gp
# Experiment: Evaluation of P-gp efflux: Caco-2 permeability
# Conditions: human, Caco-2, pH 7.4
# Method: as §1, §2, §3, §4, §5
row,"efflux ratio at 120 min, 5 µM",SMILES
1,30.4,C[C@H]1O[C@@H](O[C@H]2[C@@H](O)C[C@H](O[C@H]3[C@@H](O)C[C@H](O[C@H]4CC[C@@]5(C)[C@H](CC[C@@H]6[C@@H]5C[C@@H](O)[C@]5(C)[C@@H](C7=CC(=O)OC7)CC[C@]65O)C4)O[C@@H]3C)O[C@@H]2C)C[C@H](O)[C@@H]1O [Digoxin]
2,1.59,COc1cc2nc(N3CCN(C(=O)c4ccco4)CC3)nc(N)c2cc1OC [Prazosin]
3,0.75,CC(C)NCC(O)COc1cccc2ccccc12 (stereo not drawn) [Propranolol]
